Reference: patent publication US10195218B2, “Crystallization method and bioavailability” (GRUNENTHAL GMBH, priority 2016, dated 2019)
Where two headings read alike, the source gives them in different places.

Columns and labels:
[1] = Rat PK study: plasma concentrations of zoledronic acid after IV, oral gavage or intraduodenal (ID) dosing, LC/MS/MS; format: in vivo, Sprague-Dawley Rats
Procedure: These studies were conducted on rats and dogs as they are suitable animal models for zoledronic acid. This can be attributed to the fact that both animals have historically been used in the safety evaluation and PK screening studies and are recommended by appropriate regulatory agencies. […] Pure zoledronic acid and zoledronic acid complexes prepared by the methods in this invention were delivered to the rats and dogs through IV or oral routes. Additional tests included ID administration in rats and administration of enteric coated capsules in dogs. All compounds delivered were well tolerated by the animals with no adverse events or physical abnormalities noticed. […] USA. Surgical catheters (jugular vein and intraduodenum) were implanted to the animals prior to the study. […] Surgical catheters (jugular vein) were implanted prior to the study. […] Zoledronic acid and its complex formulations were administered through IV, oral and ID. […] The dose of each rat was calculated on a per rat basis (not on an average weight of all the rats in the lot). • ii. Oral gavage administration: solid suspensions were administered. The dose of each rat was calculated on a per rat basis (not on an average weight of all the rats in the lot). […] Duodenal cannula administration: solid suspensions were administered. The dose of each rat was calculated on a per rat basis (not on an average weight of all the rats in the lot). […] Group I (IV administration). Group members, designated IV doses are listed below IV comparator group, was conducted to calculate MAT (mean absorption time) and ka (absorption rate constant) for the oral groups. Group II (oral gavage): Group designations and oral doses are listed below: Group III (ID administration): Group designations and oral doses are listed below: Group IV (oral gavage): Group designations and oral doses are listed below: […] Samples were thawed on the day of analysis and the amount of zoledronic acid in the samples was quantified by analyzed by LC/MS/MS method.

[2] = Dog PK study: serum concentrations of zoledronic acid after IV or oral (gelatin capsule, enteric or non-enteric coated, with or without excess coformer, micronized) dosing, LC/MS/MS; format: in vivo; details: beagle, Leg 1, IV 0.05 mg/kg, saline solution, time 0 hour (pre-dose), read-out: Average serum concentration of 5 dogs
Procedure: Surgical catheters (jugular vein and intraduodenum) were implanted to the animals prior to the study. Beagle dogs from Marshall Farms, N.Y., USA, weighing from (9-12 kg) were used in this study. Surgical catheters (jugular vein) were implanted prior to the study.
IV Administration: The dose volume of each dog was adjusted based upon the average weight of the dog. • ii.
Prior to dosing, all dogs received a 20 mL dose of citric acid (24 mg/mL in water) to lower the pH of their stomach. After dosing capsules or IV, all dogs received additional 6.25 mL citric acid solution (24 mg/mL in water) as a rinse.
Group A, (IV administration). Group members, designated IV doses are listed below:
Group B (oral administration): Group designations and oral doses are listed below:
Group C (oral administration): Group designations and oral doses are listed below:
Group D, (15 min IV infusion): Group members, designated IV doses are listed below:
Group E, (oral administration): Group members, designated IV doses are listed below:
Group F, (15 min IV infusion): Group members, designated IV doses are listed below: […]

[3] = cited from earlier work
[4] = cited from earlier work; remark: listed apart in the source
[5] = Aqueous solubility at room temperature; format: physicochemical; details: water
[6] = ID (duodenal cannula) 5 mg/kg zoledronic acid equivalent, PEG 400, time 8 hour
[7] = ID (duodenal cannula) 5 mg/kg zoledronic acid equivalent, PEG 400, time 24 hour
[8] = PO gavage 5 mg/kg zoledronic acid equivalent, PEG 400, time 24 hour (Table 1)
[9] = molar concentration of the complex

Zoledronic, Nicotinamide, and Water Complex
Average plasma concentration of 3 Rats [1, 6]: 0.00 ng/mL | Average plasma concentration of 3 Rats [1, 7]: 0.00 ng/mL | Average plasma concentration of 3 Rats [1, 8]: 0.00 ng/mL

O=P(O)(O)C(O)(Cn1ccnc1)P(=O)(O)O [Zoledronic acid, (1-hydroxy-2-imidazol-1-yl-1-phosphono-ethyl)phosphonic acid]
concentration at 0 h [2]: 0 ng/mL | oral bioavailability ([3]; according to FDA Summary Basis of Approval): approximately 1% | gastric and intestinal irritation ([3]; in vivo): severe gastric and intestinal irritations | solubility in 0.1 N HCl solution ([4]; 0.1 N HCl solution): sparingly soluble | solubility in 0.1 N NaOH ([4]; 0.1 N NaOH): freely soluble | solubility in various organic solvents ([4]; various organic solvents): practically insoluble | solubility in water ([4]; water): sparingly soluble

O=P(O)(O)C(O)(Cn1ccnc1)P(=O)(O)O [ZA monohydrate, Zoledronic acid monohydrate, reference compound]
solubility ([5]; molar concentration of the complex, read-out: Aqueous solubility, mMol/L (complex)): 5.41 mmol/L | solubility ([5]; read-out: Aqueous solubility, Conc.): 1570 µg/mL

NCCCCC(N)C(=O)O.O.O.O=P(O)(O)C(O)(Cn1ccnc1)P(=O)(O)O [ZA:L-Lysine dihydrate]
Aqueous solubility, Conc. [5]: 8220 µg/mL | Aqueous solubility, mMol/L (complex) [5, 9]: 18.09 mmol/L

Zoledronic, L-lysine, and water complex
Average plasma concentration of 3 Rats ([1]; ID (duodenal cannula) 5 mg/kg zoledronic acid equivalent, PEG 400, time 0.25 hour): 91.21 ng/mL | Average plasma concentration of 3 Rats ([1]; ID (duodenal cannula) 5 mg/kg zoledronic acid equivalent, PEG 400, time 1 hour): 26.53 ng/mL | Average plasma concentration of 3 Rats ([1]; ID (duodenal cannula) 5 mg/kg zoledronic acid equivalent, PEG 400, time 4 hour): 0.74 ng/mL | Average plasma concentration of 3 Rats [1, 6]: 0.00 ng/mL | Average plasma concentration of 3 Rats [1, 7]: 0.00 ng/mL | Average plasma concentration of 3 Rats ([1]; PO gavage 5 mg/kg zoledronic acid equivalent, PEG 400, time 0.25 hour (Table 1)): 258.43 ng/mL | Average plasma concentration of 3 Rats ([1]; PO gavage 5 mg/kg zoledronic acid equivalent, PEG 400, time 0.5 hour (Table 1)): 249.82 ng/mL | Average plasma concentration of 3 Rats ([1]; PO gavage 5 mg/kg zoledronic acid equivalent, PEG 400, time 1 hour (Table 1)): 184.95 ng/mL | Average plasma concentration of 3 Rats ([1]; PO gavage 5 mg/kg zoledronic acid equivalent, PEG 400, time 4 hour (Table 1)): 28.70 ng/mL | Average plasma concentration of 3 Rats ([1]; PO gavage 5 mg/kg zoledronic acid equivalent, PEG 400, time 8 hour (Table 1)): 3.27 ng/mL | Average plasma concentration of 3 Rats [1, 8]: 0.00 ng/mL

NCCCCC(N)C(=O)O.O.O=P(O)(O)C(O)(Cn1ccnc1)P(=O)(O)O [ZA:DL-Lysine monohydrate]
Aqueous solubility, Conc. [5]: 13900 µg/mL | Aqueous solubility, mMol/L (complex) [5, 9]: 31.86 mmol/L
